# Where a name gives a salt, the structure may show the parent alone.
# Experiments:
# [1] = test system: children with non-syndromic autism spectrum disorder (ASD) and language impairment; assay: Randomized placebo-controlled trial: Social Responsiveness Scale (SRS); type: in vivo, human; conditions: lower = less social symptoms
# Description: The Social Responsiveness Scale (“SRS”) is a 65-item questionnaire that measures social skills across five domains: Social Awareness (8 items, meaningful change 7.1), Social Cognition (12 items, meaningful change 5.8), Social Communication (22 items, meaningful change 4.2), Social Motivation (11 items, meaningful change 5.7), Autistic Mannerisms (12 items, meaningful change 5.5) and total (65 items). Each item is rated 0 to 3 with higher scores indicating greater severity. Standardized T-scores (mean 50, standard deviation 10) range 30-90. This two-arm double-blind randomized placebo-controlled parallel study with a 1:1 allocation was performed at Arkansas Children's Research Institute (Little Rock, Ark., USA) from 4 Jun. 2012 to 22 Nov. 2013. Parent and teacher questionnaires were requested at baseline and 6 and 12 weeks after starting treatment. Parents were asked to deliver baseline questionnaires to teachers or therapists. After the first visit, questionnaires were mailed to the parents and teachers at least 1 week prior to the target date of completion. Parents were asked to bring the completed teacher and parent 12-week questionnaires to the final assessment. Other questionnaires were returned in a preaddressed postage-paid envelope. The target dose of the intervention (INN: DL folinic acid calcium salt; USAN: leucovorin calcium) was 2 mg kg^−1 per day (maximum 50 mg per day) in two equally divided doses with half of the target dose given during the first 2 weeks. Dye-free, milk-product-free, vegetarian capsules were provided in three strengths (5, 10 and 25 mg) by Lee Silsby Compounding Pharmacy (Cleveland Heights, Ohio, USA). Certificate of analysis was provided for each capsule strength by an independent analytical service (Eagle Analytical Services, Houston, Tex., USA) for each batch of capsules produced. In all cases, potency was at least 99%. Secondary outcomes. Secondary outcome measures included the Ohio Autism Clinical Impression Scale (OACIS), Vineland Adaptive Behavior Scale 2nd Edition (VABS) Survey Interview Form and several questionnaires. Parents and teachers were asked to complete the Aberrant Behavior Checklist (ABC), Social Responsiveness Scale (SRS) and Behavioral Assessment System for Children 2nd Edition (BASC). Only parents were asked to complete the Autism Impact Measure (AIM) and Autism Symptoms Questionnaire (ASQ). Secondary outcome measures were analyzed using the mixed-model regression. Because of the large number of secondary outcomes, correction for multiple comparisons was conducted using the false discovery rate.
# [2] = test system: children with non-syndromic autism spectrum disorder (ASD) and language impairment; assay: Randomized placebo-controlled trial: Behavioral Assessment System for Children (BASC); type: in vivo, human; conditions: for BASC Internalizing problems, estimated effect: calcium salt
# Description: The Behavioral Assessment System for Children 2nd Edition (“BASC”) ranges from 185 to 306 items and is validated in ASD. Each item is rated 0 to 3 with higher scores indicating greater severity. Standardized T-Scores (mean 50, standard deviation 10) range 20-120 for externalizing, internalizing and behavioral symptoms and 10-90 for adaptive skills. This two-arm double-blind randomized placebo-controlled parallel study with a 1:1 allocation was performed at Arkansas Children's Research Institute (Little Rock, Ark., USA) from 4 Jun. 2012 to 22 Nov. 2013. Parent and teacher questionnaires were requested at baseline and 6 and 12 weeks after starting treatment. Parents were asked to deliver baseline questionnaires to teachers or therapists. After the first visit, questionnaires were mailed to the parents and teachers at least 1 week prior to the target date of completion. Parents were asked to bring the completed teacher and parent 12-week questionnaires to the final assessment. Other questionnaires were returned in a preaddressed postage-paid envelope. The target dose of the intervention (INN: DL folinic acid calcium salt; USAN: leucovorin calcium) was 2 mg kg^−1 per day (maximum 50 mg per day) in two equally divided doses with half of the target dose given during the first 2 weeks. Dye-free, milk-product-free, vegetarian capsules were provided in three strengths (5, 10 and 25 mg) by Lee Silsby Compounding Pharmacy (Cleveland Heights, Ohio, USA). Certificate of analysis was provided for each capsule strength by an independent analytical service (Eagle Analytical Services, Houston, Tex., USA) for each batch of capsules produced. In all cases, potency was at least 99%. Secondary outcomes. Secondary outcome measures included the Ohio Autism Clinical Impression Scale (OACIS), Vineland Adaptive Behavior Scale 2nd Edition (VABS) Survey Interview Form and several questionnaires. Parents and teachers were asked to complete the Aberrant Behavior Checklist (ABC), Social Responsiveness Scale (SRS) and Behavioral Assessment System for Children 2nd Edition (BASC). Only parents were asked to complete the Autism Impact Measure (AIM) and Autism Symptoms Questionnaire (ASQ). Secondary outcome measures were analyzed using the mixed-model regression. Because of the large number of secondary outcomes, correction for multiple comparisons was conducted using the false discovery rate.
# [3] = vs placebo, mixed-model regression
# [4] = vs placebo, mixed-model regression, lower = better
compound,measurement,setting,value
"Nc1nc2c(c(=O)[nH]1)N(C=O)C(CNc1ccc(C(=O)N[C@@H](CCC(=O)O)C(=O)O)cc1)CN2 (mixture of isomers) [Folinic acid, DL folinic acid calcium salt]","SRS Motivation, 12-week assessment mean","[1]; 2 mg kg^−1 per day, 12 weeks, baseline 75.5",70.3 T-Scores
same,"SRS Awareness, 12-week assessment mean","[1]; 2 mg kg^−1 per day, 12 weeks, baseline 79.2",78.7 T-Scores
same,"SRS Communication, 12-week assessment mean","[1]; 2 mg kg^−1 per day, 12 weeks, baseline 82.5",80.1 T-Scores
same,"SRS Mannerisms, 12-week assessment mean","[1]; 2 mg kg^−1 per day, 12 weeks, baseline 83.4",80.5 T-Scores
same,"SRS Cognition, 12-week assessment mean","[1]; 2 mg kg^−1 per day, 12 weeks, baseline 83.7",79.3 T-Scores
same,"SRS Total, 12-week assessment mean","[1]; 2 mg kg^−1 per day, 12 weeks, baseline 84.9",82.2 T-Scores
same,"SRS Awareness, estimated effect",[1]; [3],0.3 T-Scores
same,"SRS Cognition, estimated effect",[1]; [3],0.8 T-Scores
same,"SRS Communication, estimated effect",[1]; [3],1.5 T-Scores
same,"SRS Mannerisms, estimated effect",[1]; [3],0.9 T-Scores
same,"SRS Motivation, estimated effect",[1]; [3],0.2 T-Scores
same,"SRS Total, estimated effect",[1]; [3],0.8 T-Scores
same,"BASC Adaptive skills, 12-week assessment mean","[2]; 2 mg kg^−1 per day, 12 weeks, baseline 24.5, higher = better",27.8 T-Scores
same,"BASC Internalizing problems, 12-week assessment mean","[2]; 2 mg kg^−1 per day, 12 weeks, baseline 49.3, lower = better",43.1 T-Scores
same,"BASC Externalizing problems, 12-week assessment mean","[2]; 2 mg kg^−1 per day, 12 weeks, baseline 60.9, lower = better",57.7 T-Scores
same,"BASC Behavior problems, 12-week assessment mean","[2]; 2 mg kg^−1 per day, 12 weeks, baseline 71.1, lower = better",65.3 T-Scores
same,"BASC Adaptive skills, estimated effect","[2]; vs placebo, mixed-model regression, higher = better",0.4 T-Scores
same,"BASC Behavior problems, estimated effect",[2]; [4],0.1 T-Scores
same,"BASC Externalizing problems, estimated effect",[2]; [4],−0.1 T-Scores
same,"BASC Internalizing problems, estimated effect",[2]; [4],−1.1 T-Scores
same,"BASC Internalizing problems, estimated effect","[2]; vs placebo, mixed-model regression, lower = better, listed as folinic acid",significantly improved

# From patent publication US20190111059A1, “COMPOSITIONS AND METHODS FOR TREATING AUTISM SPECTRUM DISORDER” (Marinus Pharmaceuticals, Inc., priority 2017, published 2019)
